{"source": "patent US20120328605A1", "about": "“COMPOSITIONS AND USES” (priority 2010, published 2012)", "key": {"Lineage-CD11b+ monocytes": {"test_system": "Lineage-CD11b+ monocytes", "test": "Monocyte analysis and counting after adjuvant injection in mice", "assay_type": "in vivo, C57BL/6 mice", "method": "(§1) 24-Hours after injection of the TLR adjuvants, peripheral blood was drawn from C57BL/6 mice via cardiac puncture with lithium-heparin as anticoagulant. Red blood cell lysis was performed twice on pooled blood with Ammonium Chloride-based Buffer (Sigma, Steinheim, Germany) and cells were counted with the EasyCount™ System (Immunicon). […] Cells were finally washed three times and fixed for 15 min. with a 2% paraformaldehyde solution in PBS. Fluorescence minus one (FMO) controls were always included in the assays for fluorescent compensation setting. Samples were acquired on a flow cytometer (BD FACSCanto II) and data analyzed with the FACSDiva software (BD Biosciences). Monocytes were identified by their Side/Forward scatter properties and gated as CD3-/CD45R/B220-/Ly-6G-/NK1.1-(Lineage-)/CD11b+ cells. CD11b+ monocyte frequency was reported as a percentage of the total cells excluding debris.\nas §1, with “24 hours” for “24-Hours”, “each immunomodulator,” for “the TLR adjuvants,”, “min” for “min.”, “monocytes” for “monocyte”"}, "APPSwe/PS1 mice": {"test_system": "APPSwe/PS1 mice", "test": "T-water maze", "assay_type": "in vivo", "conditions": "Example 21: twelve weekly injections; CRX527, CRX601 20 μg i.p., 3D MPL 50 μg i.p., AS01B 1/10th human dose i.m.; FIG. 24", "method": "Five groups of APPSwe/PS1 mice received one a week for a period of 12 weeks the following treatment: • Gr1: APPSwe/PS1+NaCl 0.9% n(=20), i.p. injections • Gr4: APPSwe/PS1+CRX527 (20 μg/mouse, 130 μl, n=10), i.p. injections • Gr5: […] (50 μg/mouse, 130 μl, n=10), i.p. injections • Gr8 APPSwe/PS1+AS15 ( 1/10th of human dose, 50 μl, n=10), i.m. injections • Gr9: APPSwe/PS1+AS01B ( 1/10th of human dose, 50 μl, n=10), i.m. injections\nMice were tested during the “light on” phase of the day. Behavioral experimenter was blinded to the genetic and treatment status of animals. To assess hippocampal-dependent spatial learning and memory, mice were trained in the T-water maze task. In this paradigm, we evaluate the mouse's ability to remember the spatial location of submerged platform. The T-maze apparatus (length of stem, 64 cm; length of arms, 30 cm; width, 12 cm; height of walls, 16 cm) was made of clear fiberglass and filled with water (23±1° C.) at a height of 12 cm. A platform (11×11 cm) was placed at the end of the target arm and was submerged 1 cm below the surface. The acquisition phase allows to evaluate animals for left-right spatial learning. During the first two trials, platforms were placed on each arms of the maze to test the spontaneous turning preference of the mouse. After these two trials, the least chosen arm was reinforced by the escape platform. The mice were placed in the stem of the T-maze and choose to swim either left or right until they found the submerged platform and escape to it, to a maximum of 60 s. After reaching the platform, the mice remained on it for 20 s and then were immediately placed back in the maze. […] Repeated trials were presented on the same day up to a maximum of 48 trials. A rest period of at least 10-15 min intervened between each block of 10 trials. A mouse was considered to have learned the task when it made no errors in a block of five consecutive trials. […] The number of trials to reach the criterion (five of five correct choices made on consecutive trials) was measured as well as the latency to find the escape platform."}, "BV2 microglia cells": {"test_system": "BV2 microglia cells", "test": "In vitro phagocytosis of Aβ1-42 in BV2 cells, Western blot", "assay_type": "cell-based, mouse", "conditions": "5 μg/mL cytochalasin D; FIG. 16", "method": "For total Aβ detection, 10-30 μg of cell extracts were separated on a precast 10-20% SDS polyacrylamide Tris-Tricine gel (Bio-Rad, Canada). Separated proteins were then transferred onto polyvinylidene fluoride (PVDF) membranes (PerkinElmer, Canada). Membrane were incubated in DPBS (Gibco, USA) at 90° C. for 10 min. Membrane were then incubated for 1 hour in blocking solution, which consist in TBS-T (50 mM Tris-HCl pH 8,0; 150 mM NaCl; 0.05% Tween 20) supplemented with 1% BSA (Sigma, Canada) and 5% non-fat dry milk, and probed for 16 hours at 4° C. with a mouse anti-amyloid beta protein monoclonal antibody clone 6E10 (Covance, USA) diluted to 1:1000 in TBS-T supplemented with 5% BSA and 0.02% sodium azide. Membranes were washed once for 15 min and three times for 5 min in TBS-T at room temperature. […] Films were digitalized using a HP Scanjet 4370 (HP) and signal intensity was measured using ImageJ (version 1.44p, NIH).\nAβ specific antibodies stimulate the uptake of soluble Aβ1-42 toxic peptides in an actin polymerization-dependent mechanism. […] Cells were incubated for the indicated period of time, resuspended by trypsinization, collected, solubilised in lysis buffer and further analyzed by immunoblotting. […]"}, "[1]": {"test_system": "human microglial cell line CHME", "test": "Phagocytosis of beta-amyloid 1-42 peptide by CHME cells", "assay_type": "cell-based", "conditions": "Pam3Cys lip peptide 5 ug per ml, FIG. 18", "method": "Phagocytosis of beta-amyloid 1-42 peptide by the human microglial cell line CHME was observed after the addition of TLR2 agonist containing adjuvants Protollin and Pam3CysLip peptide. […] The synthetic peptide sequence of the Pam3Cys Lip peptide is described herein: Pam3Cys-SQ EPAAPAAEAT PAAEAP. Protollin was used at concentration 1 ug per ml based on the LPS content from Shigella flexneri. Pam3Cys lip peptide was used at concentration of 5 ug per ml of the pure tri-palmitoylated peptide.\nAdditionally, cells were imaged using 42 HiLyte 488 Fluo (Anaspec, Inc.) at 2 ug per ml in DMEM complete media (Invitrogen). Lysotracker red staining was performed and slides were mounted and co-stained with DAPI to show the nucleus (blue). […] Lysotracker red reagent was purchased from Invitrogen and used as manufacturer recommendations."}, "Aβ42": {"test_system": "Aβ42", "test": "Aβ42 specific immunogenicity in the amyloid deposition mouse model", "assay_type": "in vivo, TASTPM mice", "conditions": "12 injections of 10 ug, intramuscular route; FIG. 29", "method": "Whole blood is collected from mice and centrifuged on a vacutainer blood collection tube containing gel for serum separation. Serum samples are stored at −80° C. Streptavidin-coated plates (Greiner Bio-One, Germany) are first coated with beta-amyloid (1-42)-Lys(Biotin)-NH2 peptide (Anaspec, Inc.) at 0.5 μg/mL, using 50 mM sodium carbonate buffer, overnight at 4° C. Plates are then washed using a 4 times using PBS/0.05% Tween 20. Super Block (ScyTek laboratories) is added to the plates and incubated at 37° C. for at least one hour. Serum samples and standard (anti Aβ42 antibody (6E10 antibody, Covance, Inc.) are serially diluted in the plates and incubated at 37° C. for 2 hours. After a wash step, diluted peroxidase AffiniPure goat anti-mouse IgG, Fcγ fragment specific (Jackson ImmunoResearch Laboratories Inc.) is added for 1 hour at 37° C. A last wash is performed before adding TMB substrate reagent (BD OptEIA™, BD Biosciences) for 30 min at RT. Immediately, plates are stopped using 2N sulfuric acid, and then read at 450 nm using SpectraMax microplate reader (Molecular Devices, Inc.)."}, "TASTPM mice": {"test_system": "TASTPM mice", "test": "T-water maze test in TASTPM", "assay_type": "in vivo", "conditions": "12 weekly i.m. injections; FIG. 30", "method": "To determine whether a TLR2 agonist will improve the cognitive impairment in TASTPM mice, the Pam3CysLip adjuvant fused to the Aβ1-6 peptide was injected 12 times at weekly basis using the intramuscular route and the memory was assessed using the T-water maze test. […] TASTPM mice have received one a week for a period of 12 weeks the following treatment: PBS or mice have received once a week for a period of 12 weeks the following treatment: PBS or of Pam3CysLip Aβ1-6 peptide."}, "PDAPP mice": {"test_system": "PDAPP mice", "conditions": "immunization of young PDAPP mice; cited from earlier work"}}, "note": "Where no end group is shown, it is not given here. The star is where a group is joined. Pam3Cys = N-terminal lipid (lipidation), CCCCCCCCCCCCCCCC(=O)N[C@@H](CSCC(COC(=O)CCCCCCCCCCCCCCC)OC(=O)CCCCCCCCCCCCCCC)C(=O)*", "data": [{"molecule": "CCCCCCCCCCC[C@H](CC(=O)N[C@H]1[C@H](OC[C@H](NC(=O)C[C@@H](CCCCCCCCCCC)OC(=O)CCCCCCCCC)C(=O)O)O[C@H](CO)[C@@H](OP(=O)(O)O)[C@@H]1OC(=O)C[C@@H](CCCCCCCCCCC)OC(=O)CCCCCCCCC)OC(=O)CCCCCCCCC", "note": "[CRX527]", "values": [{"measurement": "circulating monocytes numbers following injection", "setting": "Lineage-CD11b+ monocytes; i.m. or i.p. routes, doses of b403, FIG. 9", "result": "Upregulation of circulating monocytes numbers"}, {"measurement": "behaviour as assessed by T water maze testing", "setting": "APPSwe/PS1 mice", "result": "significant improvements in behaviour"}]}, {"molecule": "C=C1[C@@H](C)[C@H]2[C@H](Cc3ccccc3)NC(=O)[C@]23[C@H](OC(C)=O)/C=C/[C@@](C)(O)C(=O)[C@@H](C)C/C=C/[C@H]3[C@@H]1O", "note": "[cytochalasin D]", "values": [{"measurement": "effect on 2E7-increased cellular uptake of Aβ1-42", "setting": "BV2 microglia cells", "result": "inhibited"}]}, {"molecule": "Pam3Cys-SQ EPAAPAAEAT PAAEAP (Pam3Cys-SQEPAAPAAEATPAAEAP) [Pam3CysLip peptide, TLR2 agonist, tri-palmitoylated peptide from Neisseria meningitidis strain 8047]", "values": [{"measurement": "phagocytosis", "setting": "[1]; pre-incubation 18 hrs", "result": "86 % of cells"}, {"measurement": "phagocytosis of Aβ1-42 by CHME", "setting": "[1]; Protollin 1 ug per ml (LPS content), 18 hrs, vs PBS", "result": "higher amyloid phagocytic activity"}]}, {"molecule": "Pam3Cys-SQ EPAAPAAEAT PAAEAPDAEFRH (Pam3Cys-SQEPAAPAAEATPAAEAPDAEFRH) [Pam3CysLip Aβ1-6 peptide]", "values": [{"measurement": "anti Aβ42 specific immunogenicity", "setting": "Aβ42", "result": "High and specific anti Aβ42 specific immunogenicity"}, {"measurement": "right-left discrimination tests (T-water maze) vs PBS injected group", "setting": "TASTPM mice", "result": "trend of improvement"}]}, {"molecule": "QS21 [reference compound]", "values": [{"measurement": "activated Ly6C+ monocytes", "setting": "Lineage-CD11b+ monocytes; single i.m. injection, 24 hrs, FIG. 19B", "result": 75, "unit": "%"}, {"measurement": "number of monocytes, % of total peripheral white blood cells", "setting": "Lineage-CD11b+ monocytes; single i.m. injection, after 24 hrs, QS21 5 μg, FIG. 19A", "result": 9.1, "unit": "%"}]}, {"molecule": "synthetic human Aβ1-42: synthetic human Aβ1-42 used to immunize PDAPP mice", "values": [{"measurement": "AD-like neuropathologies", "setting": "PDAPP mice", "result": "reduce the extent and progression"}]}]}
